{
  "source": "patent US12605362B2",
  "about": "“Eletriptan hydrobromide for treatment of spinal cord injury and improvement of locomotor function” (TECHNOPHAGE, INVESTIGAÇÃO E DESENVOLVIMENTO EM …, priority 2020, dated 2026)",
  "key": {"[1]": {"tested_on": "transected zebrafish larvae", "assay": "larval zebrafish phenotypic-based screen for SCI (transected spinal cord, DanioVision swimming activity)", "type": "in vivo", "description": "Tg(mnx1:GFP^m12), abbreviated as hb9:GFP were maintained and bred in constant conditions, by following standard guidelines for fish care and maintenance protocols^27. Zebrafish larvae were used in the phenotypic-based screen for SCI.\nA larval zebrafish phenotypic-based screen was used to screen a pool of compounds from a small molecule library (PHARMAKON 1600-MicroSource Discovery Systems, Inc., USA) as previously described by Diana et al. 201928. Briefly, zebrafish larvae were allowed to develop in EM with 1 μM methylene blue until 5 days-post-fertilization (dpf). At 5dpf, zebrafish larvae spinal cords were transected at the level of the anal pore (Diana et al. 2019). At 1 dpi, larvae were randomly distributed into 6-well plates containing EM+10 mM HEPES and exposed during 24 hours to the chemical compounds added to the medium. At 2 dpi, behavioural assessment was performed using DanioVision™ (Noldus Information Technology, the Netherlands) an automated tracking system for zebrafish larvae. Larvae were allowed to freely swim in a 96-well plate (1 larva/well) with EM+10 mM HEPES and their swimming activity was tracked for […], under 10 minutes light-dark cycles (i.e. 3 light cycles and 3 dark cycles). The acquired track data was analysed using the Ethovision X.T. 10 software (Noldus, Wageningen, Netherlands) and only swimming activity obtained in the 3 dark periods were analysed^29.\nTo accelerate the discover of potential new therapeutics for spinal cord injury (SCI) we used a phenotypic assay that enabled the screening of a pool of chemical compounds from an FDA approved small molecules library. In this phenotypic-based screen, we blindly administered the chemical compounds (25 μM) at 1 day-post-injury (dpi) and we performed the behavioural assessment 24 hours later (i.e. at 2 dpi) as previously described by Chapela D. et al. 2019. The small molecules were first blindly selected, if there was a statistically significant improvement of total distance moved and/or turn angle parameters, which were chosen as indicators of locomotor function. […]"}, "[2]": {"tested_on": "mice with T9 contusion type of injury", "assay": "acetone evaporation assay (cold allodynia) after T9 contusion SCI", "type": "in vivo", "details": "14 dpi and 42 dpi, vs Vehicle", "method": "A moderate-severe contusion-type of injury was performed on adult C57BL/6 female mice (10-12 weeks) with an Infinite Horizon Impactor (PSI)^30. All surgeries were performed under aseptic conditions. Briefly, under deep anesthesia with Ketamine and Xylazine (120 mg/kg and 16 mg/kg respectively, i.p.) mice received a dorsal laminectomy at the level of 9th thoracic vertebra (T9). After securing the lateral processes of the 8th thoracic vertebra (T8) and 10th thoracic vertebra (T10) with a stainless-steel impactor tip, a controlled force-defined impact at 75 kdyne was delivered to the exposed spinal cord^28,30. Then, muscle and skin were closed with 4.0 polyglycolic acid (PGA) absorbable sutures (Safil, G1048213). In this study, mice were excluded when the actual displacement value was outside the interval 500-700 μm or if the actual force after impact was >2SD 75 Kdyne. […] Weight was monitored daily until 15 days-post-injury (dpi) and then weekly for the duration of the study and a high caloric pellet (Supreme Mini-Treats™ S05478 and S05472) was provided as a dietary supplement since a 10% weight loss was typically observed in this SCI model upon injury. […]\nAn acetone evaporation assay was used to measure the sensitivity to a cold stimulus upon injury^33. […] In each trial, the time spent flicking or licking the hind paw for 60 seconds was measured using a timer and recorded for analysis^34. […]"}, "5-HT1B": {"biological_target": "5-HT1B (Homo sapiens, UniProt P28222)", "sequence (P28222 whole entry, species assumed)": "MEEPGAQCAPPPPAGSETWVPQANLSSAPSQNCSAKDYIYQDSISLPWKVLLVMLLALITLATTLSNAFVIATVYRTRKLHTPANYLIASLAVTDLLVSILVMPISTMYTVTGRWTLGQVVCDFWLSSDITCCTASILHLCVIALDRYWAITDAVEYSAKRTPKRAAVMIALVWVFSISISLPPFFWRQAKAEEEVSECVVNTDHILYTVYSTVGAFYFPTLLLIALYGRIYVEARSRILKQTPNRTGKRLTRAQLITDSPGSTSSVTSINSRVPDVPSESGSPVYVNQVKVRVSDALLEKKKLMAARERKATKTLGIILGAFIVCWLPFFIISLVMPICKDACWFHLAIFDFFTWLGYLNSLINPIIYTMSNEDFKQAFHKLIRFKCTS", "details": "serotonin receptor agonist; cited from earlier work"}, "5-HT1D": {"biological_target": "5-HT1D (Homo sapiens, UniProt P28221)", "sequence (P28221 whole entry, species assumed)": "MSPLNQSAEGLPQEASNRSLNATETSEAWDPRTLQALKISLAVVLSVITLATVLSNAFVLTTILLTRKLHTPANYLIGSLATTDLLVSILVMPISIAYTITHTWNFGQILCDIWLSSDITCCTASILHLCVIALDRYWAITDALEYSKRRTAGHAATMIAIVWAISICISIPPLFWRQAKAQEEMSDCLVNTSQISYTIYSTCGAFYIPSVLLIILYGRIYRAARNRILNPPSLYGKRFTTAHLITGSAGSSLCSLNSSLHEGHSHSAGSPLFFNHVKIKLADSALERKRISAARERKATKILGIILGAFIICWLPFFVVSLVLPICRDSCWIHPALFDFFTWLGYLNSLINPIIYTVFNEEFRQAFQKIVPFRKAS", "details": "serotonin receptor agonist; cited from earlier work"}, "[3]": {"details": "25 μM from 1 dpi, assessed at 2 dpi, dark periods, vs vehicle"}},
  "note": "Counter-ions that a name gives are not always drawn.",
  "data": [
    {"smiles": "CN1CCC[C@@H]1Cc1c[nH]c2ccc(CCS(=O)(=O)c3ccccc3)cc12", "note": "[Eletriptan Hbr, Eletriptan Hydrobromide]", "values": [
      {"measurement": "total distance moved", "setting": "[1]; [3]", "result": "rescues motor impairments"},
      {"measurement": "turn angle", "setting": "[1]; [3]", "result": "rescues motor impairments"},
      {"measurement": "locomotor impairments", "setting": "[1]; 25 μM in medium from 1 dpi for 24 hours, behavioural assessment at 2 dpi, vs vehicle treated injured larvae", "result": "rescue locomotor impairments"},
      {"measurement": "cumulative reaction time of nocifensive responses", "setting": "[2]", "result": "consistently but not a significantly decrease"},
      {"measurement": "number of episodes of the cold hypersensitivity", "setting": "[2]", "result": "lower number of episodes"},
      {"measurement": "affinity", "setting": "5-HT1B", "result": "high affinity"},
      {"measurement": "affinity", "setting": "5-HT1D", "result": "high affinity"}
    ]}
  ]
}
